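Five compound concentrations were applied to cells in 96-well plates for 48 hours; endpoints were derived by simple linear interpolation of the resulting dose-response curve. GI50 is the concentration that inhibits growth by half.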 The source made the active and inactive calls. Cut-off read from the data, not from the text of the source: active = GI50 up to about 1.1 µM and inactive = higher.
Legend:
Test in all cases: inhibition of tumour cell growth, NCI panel, 48 h
HOP-92 = test system: HOP-92
786-0 = test system: 786-0
NCI-H460 = test system: NCI-H460
UO-31 = test system: UO-31
MCF7 = test system: MCF7
NCI-H226 = test system: NCI-H226
OVCAR-4 = test system: OVCAR-4
PC-3 = test system: PC-3
A549 = test system: A549
MOLT-4 = test system: MOLT-4
EKVX = test system: EKVX
COLO 205 = test system: COLO 205
IGROV-1 = test system: IGROV-1
OVCAR-3 = test system: OVCAR-3
NCI-H522 = test system: NCI-H522
HT-29 = test system: HT-29
HCC 2998 = test system: HCC 2998
U-251 = test system: U-251
LOX IMVI = test system: LOX IMVI
SR = test system: SR

Measured: GI50

C[n+]1c(-c2ccc(/C=N/NC(=O)C(=O)N/N=C/c3ccc(-c4cn5ccccc5[n+]4C)cc3)cc2)cn2ccccc21
inactive: HOP-92 > 100 µM | 786-0 > 100 µM | NCI-H460 > 100 µM | UO-31 > 100 µM | MCF7 > 100 µM | NCI-H226 > 100 µM | OVCAR-4 > 100 µM | PC-3 > 100 µM | A549 > 100 µM | MOLT-4 > 100 µM | EKVX > 100 µM | COLO 205 > 100 µM | IGROV-1 > 100 µM | OVCAR-3 45.9 µM | NCI-H522 > 100 µM | HT-29 > 100 µM | HCC 2998 > 100 µM | U-251 > 100 µM

CC(=O)OC1COC(Nc2ccc(C(C)=O)cc2)C(OC(C)=O)C1OC(C)=O (stereo not given)
inactive: HOP-92 > 100 µM | 786-0 > 100 µM | NCI-H460 > 100 µM | UO-31 > 100 µM | LOX IMVI > 100 µM | SR > 100 µM | NCI-H226 > 100 µM | OVCAR-4 > 100 µM | A549 > 100 µM | MOLT-4 > 100 µM | EKVX > 100 µM | COLO 205 > 100 µM | IGROV-1 > 100 µM | OVCAR-3 > 100 µM | NCI-H522 > 100 µM | HT-29 > 100 µM | HCC 2998 > 100 µM | U-251 > 100 µM

COc1ccc(-c2c(C#N)c(-c3ccc(C)cc3)n(NS(=O)(=O)c3ccccc3)c(=O)c2C#N)cc1
inactive: HOP-92 38.8 µM | 786-0 51.5 µM | NCI-H460 45.8 µM | MCF7 28.9 µM | LOX IMVI 30.3 µM | NCI-H226 > 100 µM | OVCAR-4 37.8 µM | PC-3 35 µM | A549 45.9 µM | MOLT-4 19 µM | EKVX 53.5 µM | COLO 205 > 100 µM | IGROV-1 35.5 µM | OVCAR-3 30.9 µM | NCI-H522 87.7 µM | HT-29 47.5 µM | HCC 2998 45.8 µM | U-251 42.2 µM

CCOC(OC1=CCCC1)C(C)[Se]c1ccccc1 (stereo not given)
inactive: HOP-92 51.2 µM | 786-0 19.1 µM | NCI-H460 19.6 µM | UO-31 39.3 µM | LOX IMVI 14.7 µM | SR 14.2 µM | NCI-H226 36.1 µM | OVCAR-4 44.2 µM | A549 34.8 µM | MOLT-4 22.3 µM | EKVX 34.2 µM | COLO 205 18.7 µM | IGROV-1 41 µM | OVCAR-3 34.5 µM | NCI-H522 17.9 µM | HT-29 23.3 µM | HCC 2998 32.4 µM | U-251 16.3 µM

CCOC(=O)C[C@@H](C)[C@]1(C(=O)OC)CCCC1=O
inactive: HOP-92 > 100 µM | 786-0 > 70.6 µM | NCI-H460 > 67 µM | UO-31 > 100 µM | LOX IMVI > 47.1 µM | SR 27.9 µM | NCI-H226 > 100 µM | OVCAR-4 > 100 µM | A549 > 100 µM | MOLT-4 > 100 µM | EKVX > 100 µM | COLO 205 > 51.8 µM | IGROV-1 > 100 µM | OVCAR-3 > 100 µM | NCI-H522 > 100 µM | HT-29 > 65.8 µM | HCC 2998 > 100 µM | U-251 > 100 µM

C/C(=C1/CCC/C(=C(/C)c2ccccc2)C1=O)c1ccccc1
inactive: HOP-92 38.8 µM | 786-0 44.4 µM | NCI-H460 27.2 µM | UO-31 44.6 µM | LOX IMVI 28.8 µM | SR 14.6 µM | NCI-H226 17.4 µM | OVCAR-4 46.3 µM | A549 31.8 µM | MOLT-4 21.5 µM | EKVX 45.8 µM | COLO 205 65.6 µM | IGROV-1 79.4 µM | OVCAR-3 64.4 µM | NCI-H522 33.6 µM | HT-29 26.4 µM | HCC 2998 46.3 µM | U-251 25.3 µM

NS(=O)(=O)c1nnc(NS(=O)(=O)c2ccc(Cl)cc2)s1
inactive: HOP-92 > 100 µM | 786-0 > 100 µM | NCI-H460 > 100 µM | UO-31 > 100 µM | MCF7 > 100 µM | LOX IMVI > 100 µM | SR > 100 µM | NCI-H226 > 100 µM | OVCAR-4 > 100 µM | A549 > 100 µM | MOLT-4 > 100 µM | EKVX > 100 µM | COLO 205 > 100 µM | OVCAR-3 > 100 µM | NCI-H522 > 100 µM | HT-29 > 100 µM | HCC 2998 > 100 µM | U-251 > 100 µM

Oc1cc(/C=C/c2ccccc2)nc2cc3c(cc12)OCO3
inactive: HOP-92 2.08 µM | 786-0 3.32 µM | NCI-H460 3.1 µM | UO-31 6.01 µM | MCF7 4.85 µM | OVCAR-4 14.7 µM | A549 4.95 µM | MOLT-4 2.71 µM | EKVX 6.12 µM | COLO 205 2.38 µM | IGROV-1 4.56 µM | HT-29 2.2 µM | HCC 2998 2.9 µM | U-251 2.52 µM
